Measured values taken from paper PMC6614837 (Nucleic Acids Research, 2019).

Target: T1, RNase P holoenzyme (Thermotoga maritima, UniProt Q9X1H4)
T1 construct: GST (cleaved yes); made in house; host or cells: E. coli BL21(DE3)pLysS
T1 sequence (Q9X1H4 1-117): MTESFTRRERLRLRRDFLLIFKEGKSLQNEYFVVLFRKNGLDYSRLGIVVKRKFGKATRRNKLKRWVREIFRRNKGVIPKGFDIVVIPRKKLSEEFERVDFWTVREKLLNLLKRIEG
Experiment: Biolayer interferometry binding to immobilized RNase P holoenzyme
Design: species or system T. maritima
Conditions: BLI, holoenzyme at 400 nM immobilized on Ni-NTA
Protocol: Real-time binding assays of the holoenzyme, P RNA, P protein, the substrate minihelix and the 5′-leader to individual compounds were performed by biolayer interferometry using an Octet RED96 system (ForteBio). For the holoenzyme or P RNA, a 5′ biotinylated RNA oligonucleotide with the sequence 5′biotin-CAUUCCAGACGAU was immobilized on Super Streptavidin (SSA) biosensors. Then, a modified P RNA or holoenzyme was added. The P RNA modification consisted of a sequence with part of the P1 stem sequence complementary to the biotinylated oligonucleotide (AUCGUCUGGA) (Supplementary Figure S23A). P1 is far from the active site or other regions involved in specific interactions (Supplementary Figure S23B) ([19]). The activity of this construct was indistinguishable from the wild-type holoenzyme. Alternatively, the holoenzyme was immobilized through the His-tagged P protein from T. maritima at 0.05 mg/ml (3.4 μM) on Ni-NTA biosensors. […] Kinetic binding parameters were calculated using Data Analysis 8.2 (ForteBio, Inc.). […]
Figure 4. […] Symbols represent the mean ± standard error as determined from three independent experiments at each concentration. […] RNase P holoenzyme was immobilized on Ni-NTA biosensors, incubated with purpurin at varying concentrations (0–400 μM), and then the association and dissociation pre-tRNA was monitored. […]

## O=C1c2ccccc2C(=O)c2c(O)c(O)cc(O)c21 [Purpurin, 1,2,4-trihydroxyanthraquinone]
  Kd: 13.2 µM
